From ChEMBL document CHEMBL4813984, “An original pronucleotide strategy for the simultaneous delivery of two bioactive drugs” (Eur J Med Chem, 2021)
pEC50: −log10 of the molar value.

Columns and labels:
[1] = test system: Human immunodeficiency virus 1; assay: Antiviral activity against HIV-1 infected in human CEM-SS cells assessed as reduction in viral multiplication by measuring decrease in reverse transcriptase activity incubated for 5 days; assay type: functional, organism-based; settings: Human immunodeficiency virus 1, CEM-SS, 120 h
[2] = Cytotoxicity against human CEM-SS cells assessed as reduction in cell viability incubated for 5 days by MTT assay; assay type: cell-based; settings: time 5 day
[3] = Selectivity index, ratio of CC50 for human CEM-SS cells to EC50 for antiviral activity against HIV-1 infected in human CEM-SS cells; assay type: toxicity, cell-based; settings: read-out: Ratio CC50/EC50
[4] = test system: Human immunodeficiency virus 1; assay: Antiviral activity against HIV-1 infected in human MT4 cells assessed as reduction in virus-indued cytopathogenicity incubated for 5 days by MTT assay; assay type: functional, organism-based; settings: Human immunodeficiency virus 1, MT4, 120 h
[5] = Cytotoxicity against human MT4 cells assessed as reduction in cell viability incubated for 5 days by MTT assay; assay type: cell-based; settings: time 5 day
[6] = Selectivity index, ratio of CC50 for human MT4 cells to EC50 for antiviral activity against HIV-1 infected in human MT4 cells; assay type: toxicity, cell-based; settings: read-out: Ratio CC50/EC50
[7] = test system: Human immunodeficiency virus 1; assay: Antiviral activity against HIV-1 infected in human CEM-SS cells assessed as reduction in viral multiplication by measuring decrease in reverse transcriptase activity incubated for 5 days in presence of AZT; assay type: functional, organism-based; settings: Human immunodeficiency virus 1, CEM-SS, 120 h
[8] = Cytotoxicity against human CEM-SS cells assessed as reduction in cell viability incubated for 5 days in presence of AZT by MTT assay; assay type: cell-based; settings: time 5 day
[9] = Selectivity index, ratio of CC50 for human CEM-SS cells to EC50 for antiviral activity against HIV-1 infected in human CEM-SS cells in presence of AZT; assay type: toxicity, cell-based; settings: read-out: Ratio CC50/EC50
[10] = test system: Human immunodeficiency virus 1; assay: Antiviral activity against HIV-1 infected in human CEM-SS cells assessed as reduction in viral multiplication by measuring decrease in reverse transcriptase activity incubated for 5 days in presence of ddA; assay type: functional, organism-based; settings: Human immunodeficiency virus 1, CEM-SS, 120 h
[11] = Cytotoxicity against human CEM-SS cells assessed as reduction in cell viability incubated for 5 days in presence of ddA by MTT assay; assay type: cell-based; settings: time 5 day
[12] = Selectivity index, ratio of CC50 for human CEM-SS cells to EC50 for antiviral activity against HIV-1 infected in human CEM-SS cells in presence of ddA; assay type: toxicity, cell-based; settings: read-out: Ratio CC50/EC50
[13] = test system: Human immunodeficiency virus 1; assay: Antiviral activity against HIV-1 infected in human MT4 cells assessed as reduction in virus-indued cytopathogenicity incubated for 5 days in presence of AZT by MTT assay; assay type: functional, organism-based; settings: Human immunodeficiency virus 1, MT4, 120 h
[14] = Cytotoxicity against human MT4 cells assessed as reduction in cell viability incubated for 5 days in presence of AZT by MTT assay; assay type: cell-based; settings: time 5 day
[15] = Selectivity index, ratio of CC50 for human MT4 cells to EC50 for antiviral activity against HIV-1 infected in human MT4 cells in presence of AZT; assay type: toxicity, cell-based; settings: read-out: Ratio CC50/EC50
[16] = test system: Human immunodeficiency virus 1; assay: Antiviral activity against HIV-1 infected in human MT4 cells assessed as reduction in virus-indued cytopathogenicity incubated for 5 days in presence of ddA by MTT assay; assay type: functional, organism-based; settings: Human immunodeficiency virus 1, MT4, 120 h
[17] = Cytotoxicity against human MT4 cells assessed as reduction in cell viability incubated for 5 days in presence of ddA by MTT assay; assay type: cell-based; settings: time 5 day
[18] = Selectivity index, ratio of CC50 for human MT4 cells to EC50 for antiviral activity against HIV-1 infected in human MT4 cells in presence of ddA; assay type: toxicity, cell-based; settings: read-out: Ratio CC50/EC50
[19] = test system: Human immunodeficiency virus 1; assay: Antiviral activity against HIV-1 infected in human CEM-TK(-) cells assessed as reduction in viral multiplication by measuring decrease in reverse transcriptase activity incubated for 6 days; assay type: functional, organism-based; settings: Human immunodeficiency virus 1, CEM-TK(-), 144 h
[20] = Cytotoxicity against human CEM-TK(-) cells assessed as reduction in cell viability incubated for 5 days by MTT assay; assay type: cell-based; settings: time 5 day
[21] = Selectivity index, ratio of CC50 for human CEM-TK(-) cells to EC50 for antiviral activity against HIV-1 infected in human CEM-TK(-) cells; assay type: toxicity, cell-based; settings: read-out: Ratio CC50/EC50
[22] = test system: Human immunodeficiency virus 1; assay: Antiviral activity against HIV-1 infected in human CEM-TK(-) cells assessed as reduction in viral multiplication by measuring decrease in reverse transcriptase activity incubated for 6 days in presence of AZT; assay type: functional, organism-based; settings: Human immunodeficiency virus 1, CEM-TK(-), 144 h
[23] = Cytotoxicity against human CEM-TK(-) cells assessed as reduction in cell viability incubated for 5 days in presence of AZT by MTT assay; assay type: cell-based; settings: time 5 day
[24] = Selectivity index, ratio of CC50 for human CEM-TK(-) cells to EC50 for antiviral activity against HIV-1 infected in human CEM-TK(-) cells in presence of AZT; assay type: toxicity, cell-based; settings: read-out: Ratio CC50/EC50

SMILES	pEC50 [1]	CC50 at 120 h [2]	selectivity ratio [3]	pEC50 [4]	CC50 at 120 h [5]	selectivity ratio [6]	pEC50 [19]	CC50 at 120 h [20]	also measured
Nc1ncnc2c1ncn2[C@H]1CC[C@@H](CO)O1	5.70	> 110 µM	> 55	5.05	> 110 µM	> 12	–	–	–
Nc1ccn([C@H]2CC[C@@H](CO)O2)c(=O)n1 [ZALCITABINE]	7.17	16 µM	239	5.70	180 µM	90	7.82	7 µM	pEC50 [7]: 7.80; CC50 at 120 h [8]: 46 µM; selectivity ratio [9]: 2880; pEC50 [10]: 8.00; CC50 at 120 h [11]: 46 µM; selectivity ratio [12]: 4600; pEC50 [13]: 7.08; CC50 at 120 h [14]: 130 µM; selectivity ratio [15]: 15700; pEC50 [16]: 5.92; CC50 at 120 h [17]: > 100 µM; selectivity ratio [18]: > 83; selectivity ratio [21]: 467; pEC50 [22]: 8.05; CC50 at 120 h [23]: 8.3 µM; selectivity ratio [24]: 922
Cc1cn([C@H]2C[C@H](N=[N+]=[N-])[C@@H](CO)O2)c(=O)[nH]c1=O [ZIDOVUDINE]	7.62	> 1000 µM	> 40000	–	140 µM	8240	< 4.00	> 1000 µM	–
